# Test results published in patent publication US20080199846A1, “Poultry semen extender” (priority 2007, published 2008).
# Tested on: 24 h-stored turkey semen
# Test: Fertility evaluation: artificial insemination of hens with 24 h-stored turkey semen
# Type: in vivo
# Conditions: for fertility of 24 h-stored semen versus control stored semen: 0.5, 2.5 or 10.0 mg/ml PC, wks 1-7 of egg production
# Text: Materials and Methods. Animals: LargeWhite breeder poults were purchased from a primary breeder and maintained under standard management conditions during the brooding and growing periods. At 28 wk of age, toms were photostimulated by increasing light exposure from a 12:12 to a 14:10 light:dark cycle to initiate semen production. Using the abdominal massage semen collection method (Burrows, W. H., and J. P. Quinn, Poult. Sci., 14: 251-254 (1935)), toms were pre-milked at 30 wk of age and then screened for semen quality at 31 and 32 wk of age prior to being designated to sperm storage treatment groups. At 32 wk of age, hens were photostimulated by increasing the daily light exposure from 6:18 to 14:10 h (light:dark) to initiate ovarian development and egg production. Hens were inseminated on Days 10 and 12 after photostimulation and then once per week for the next 12 wk of egg production. A total of 10 toms and 76 hens were used for each experimental replicate.
# Semen Collection, Evaluation and Storage: Semen was collected weekly from toms and evaluated for volume, sperm concentration, sperm viability, and sperm mobility. Fresh semen was aliquoted for the control and 3 sperm treatments. Control semen was extended 1:1 with Beltsville Poultry Semen Extender (BPSE), while treated semen was extended 1:1 with BPSE supplemented with 0.5, 2.5 or 10.0 mg/ml phosphatidylcholine (PC). Extended semen was transferred to 48-well culture plates. Multiwell plates were placed in a room temperature water bath on an orbital shaker (125 rpm) and slowly cooled to 4° C. with lids loosely fitted to ensure air availability during agitation. Semen was maintained under these conditions for 24 h.
# Fertility Evaluation: A total of 304 hens (76/replicate) were artificially inseminated weekly with semen stored with 0.5 mg PC/ml (n=19), 2.5 mg PC/ml (n=19), 10 mg PC/ml (n=19) or without PC (control, n=19). An additional set of hens were inseminated weekly with stored semen containing 2.5 mg/ml PC and either 0.5 mM, 5.0 mM, or 50 mM ZnCl2; prior to insemination, semen stored in the presence of ZnCl2 was treated with EDTA to chelate Zn ions and restore sperm motility. The inseminant dose for all treatments was 150×10^6 sperm. This sperm number is less than that typically inseminated for commercial production; however, I desired a system sufficiently sensitive to detect even small changes in fertility due to sperm treatment. Eggs were candled after 7 d of incubation to determine true fertility and allowed to hatch to determine hatchability. Fertility trials were replicated 4 times using different flocks.
# Statistical Analysis: Prior to analysis, data were checked to determine if a transformation was necessary. As expected, variables scored as percents (e.g., fertility) required transformation. I used the standard variance stabilizing arcsine transformation, y=arcsine (√(x)), where x represents the data, recorded as a proportion, and y is the scale used in the analysis. This transformation stabilized the variances sufficiently to proceed with an analysis in a mixed models framework. Software for conducting mixed models analyses in non-Gaussian frameworks, e.g., logistic regression, is not yet readily available. The mixed models I developed, estimated using Proc Mixed (SAS Institute, 1999), considered sperm treatment and week of study as fixed factors, with hen as a random factor. In addition, since data were taken from the same individuals repeatedly, thus inducing correlation, I allowed for within-individual time series correlation using an autoregressive structure. To ensure that my sample size and design had sufficient power to accurately determine the effects of the sperm treatments, I did a small simulation study prior to finalizing the design. Power was reassessed once the study was complete, and I report those results below. I used the default REML estimation method in Proc Mixed. […]
Molecule,"fertility rates versus 5.0 or 50 mM ZnCl2 (0.5 mM ZnCl2, semen with 2.5 mg/ml PC, EDTA before insemination, p<0.05)","true fertility of 24 h-stored semen versus other ZnCl2 treatments or control semen (5.0 mM ZnCl2, wks 1-7, p<0.05)","hens producing 100% fertile eggs versus any other stored semen treatment (2.5 mg/ml PC, first 7 wks of egg production, p<0.05)","percentage of hens laying all (100%) fertile eggs versus any other sperm treatment group (2.5 mg/ml PC, wks 2-7, p<0.05)",predictability of fertility versus the other concentrations (10 mg/ml),fertility rates during egg production (10 mg/ml PC treatment),"fertility rates versus 0.5 or 2.5 mg/ml PC treatments (10 mg/ml PC, at 1, 2 8, 10, 11, and 12 wks, p<0.05)","percentage of hens laying all unfertilized eggs versus any other sperm treatment group (10.0 mg/ml PC, wks 4 and 10, p<0.05)",fertility of 24 h-stored semen versus control stored semen (p<0.05),"fertility of 24 h-stored semen versus control stored semen (p<0.05, listed as phosphatidycholine)","fertility of stored turkey semen (0.5 or 2.5 mg/ml, first 12 wks of egg production)","fertility rates, 0.5 versus 2.5 mg/ml PC treatments (throughout egg production except wks 7 and 12, p>0.05)","fertility of 2.5 mg/ml PC treatment versus 0.5 mg/ml (wks 7 and 12, p<0.05)"
[Cl-].[Cl-].[Zn+2] [ZnCl2],Higher,higher,–,–,–,–,–,–,–,–,–,–,–
phosphatidylcholine [PC],–,–,more,more,less predictable fertility,varied widely,Lower,more,improved,higher,improved,similar,higher
